Data set [1] has as its system Escherichia coli. The data set is described as follows: Induction of cytological changes in Escherichia coli ATCC 25922 assessed as formation of short chains of three to eight cells at 15 ug/ml measured after 2 hrs by FM 4-64/DAPI staining based microscopic analysis. It counts as functional, organism-based.
In data set [2] the test system is Escherichia coli. The data set is described as follows: Antibacterial activity against Escherichia coli DM4100 harboring deltatolC mutant measured after 18 to 20 hrs by broth microdilution method. The format is functional.
The target of the next data set is MAPK14 (Homo sapiens, UniProt Q16539). The data set is described as follows: Inhibition of recombinant human full-length GST-tagged MAPK14 expressed in Escherichia coli at 25 uM using FRET-labeled Ser/Thr 15 peptide as substrate measured after 1 hr by Z'-lyte assay relative to control. As to conditions: probe FRET-labeled Ser/Thr 15 peptide.
In the next data set the test system is Pseudomonas aeruginosa. The data set is described as follows: Antibacterial activity against Pseudomonas aeruginosa PAO1 PAM1262 harboring MexAB-OprM/MexCD-OprJ/MexEF-OprN deletion mutant assessed as mutation frequency at 8 times MIC after 48 hrs by broth microdilution method. It counts as functional. A general note: Dilution methods test growth across graded concentrations, often in twofold steps.

The target in another data set is MET (Homo sapiens, UniProt P08581). The data set is described as follows: in vitro. As to conditions: probe FRET-labeled Tyr 06 peptide.
For a further data set, the target named is IKBKE (Homo sapiens, UniProt Q14164). The data set is described as follows: in vitro. As to conditions: probe FRET-labeled Ser/Thr 11 peptide.
Another data set addresses FYN (Homo sapiens, UniProt P06241). The data set is described as follows: Inhibition of full-length recombinant human C-terminal His-tagged FYN cytoplasmic domain expressed in baculovirus expression system at 25 uM using FRET-labeled tyr 02 peptide as substrate measured after 1 hr by Z'-lyte assay relative to control. Particulars: probe FRET-labeled tyr 02 peptide.
The target in another data set is Biotin carboxylase (Pseudomonas aeruginosa (strain ATCC 15692 / DSM 22644 / CIP 104116 / JCM14847 / LMG 12228 / 1C / PRS 101 / PAO1), UniProt P37798). The data set is described as follows: Inhibition of recombinant N-terminal His-tagged Pseudomonas aeruginosa PAO1 biotin carboxylase expressed in Escherichia coli Rosetta(DE3) pLysS cells using biotin as substrate by spectroscopic analysis.

The target in the next data set is MAPK1 (Homo sapiens, UniProt P28482). The data set is described as follows: Inhibition of recombinant human full-length GST-tagged MAPK1 […] expressed in Escherichia coli at 25 uM using FRET-labeled Ser/Thr 03 peptide as substrate measured after 1 hr by Z'-lyte assay relative to control. Particulars: probe FRET-labeled Ser/Thr 03 peptide.
Another data set deals with GSK3B (Homo sapiens, UniProt P49841). The data set is described as follows: Inhibition of recombinant human full-length His-tagged GSK3B expressed in baculovirus expression system at 25 uM using FRET-labeled Ser/Thr 09 peptide as substrate measured after 1 hr by Z'-lyte assay relative to control. As to conditions: probe FRET-labeled Ser/Thr 09 peptide.
Data set [3] deals with Escherichia coli. The data set is described as follows: Induction of cytological changes in Escherichia coli ATCC 25922 assessed as formation of short chains of three to eight cells at 100 ug/ml measured after 2 hrs by FM 4-64/DAPI staining based microscopic analysis. It counts as functional, organism-based.
The target in another data set is AURKA (Homo sapiens, UniProt O14965). The data set is described as follows: Inhibition of recombinant human full-length His-tagged AURKA expressed in baculovirus expression system at 25 uM using FRET-labeled Ser/Thr 01 peptide as substrate measured after 1 hr by Z'-lyte assay relative to control. As to conditions: probe FRET-labeled Ser/Thr 01 peptide.
A further data set concerns the target CDK1/cyclin B (Homo sapiens, UniProt P06493). The data set is described as follows: Inhibition of full-length recombinant human His-tagged CDK1/cyclin B expressed in baculovirus expression system at 25 uM using FRET-labeled Ser/Thr 18 peptide as substrate measured after 1 hr by Z'-lyte assay relative to control. As to conditions: probe FRET-labeled Ser/Thr 18 peptide.

For the next data set, the target named is SGK (Sgk1) (Homo sapiens, UniProt O00141). The data set is described as follows: Inhibition of recombinant human GST-tagged SGK catalytic domain (60 to 431 residues) expressed in baculovirus expression system at 25 uM using FRET-labeled Ser/Thr 06 peptide as substrate measured after 1 hr by Z'-lyte assay relative to control. As to conditions: probe FRET-labeled Ser/Thr 06 peptide.

The target in another data set is CSNK2A1 (Homo sapiens, UniProt P68400). The data set is described as follows: Inhibition of recombinant human full-length His-tagged CSNK2A1 expressed in baculovirus expression system at 25 uM using FRET-labeled Ser/Thr 11 peptide as substrate measured after 1 hr by Z'-lyte assay relative to control. Particulars: probe FRET-labeled Ser/Thr 11 peptide.
For the next data set, the target named is BTK (Homo sapiens, UniProt Q06187). The data set is described as follows: Inhibition of full-length recombinant human His-tagged BTK cytoplasmic domain expressed in baculovirus expression system at 25 uM using FRET-labeled tyr 01 peptide as substrate measured after 1 hr by Z'-lyte assay relative to control. As to conditions: probe FRET-labeled tyr 01 peptide.

The target in another data set is IKBKB (Homo sapiens, UniProt O14920). The data set is described as follows: in vitro. Particulars: probe FRET-labeled Ser/Thr 05 peptide.

Converted amounts (≈) assume the structure as drawn. The source made the active and inactive calls. The rule behind the calls is not given here. A value given as a limit tells only on which side of the number the result lay.

For orientation: MIC means the lowest concentration that inhibits growth of the organism. A low value points to inhibition by little substance. What is called inhibition is the percentage by which the read-out fell short of the control. The IC50 is the midpoint of a concentration-inhibition curve.

Sequence of GSK3B (P49841 whole entry): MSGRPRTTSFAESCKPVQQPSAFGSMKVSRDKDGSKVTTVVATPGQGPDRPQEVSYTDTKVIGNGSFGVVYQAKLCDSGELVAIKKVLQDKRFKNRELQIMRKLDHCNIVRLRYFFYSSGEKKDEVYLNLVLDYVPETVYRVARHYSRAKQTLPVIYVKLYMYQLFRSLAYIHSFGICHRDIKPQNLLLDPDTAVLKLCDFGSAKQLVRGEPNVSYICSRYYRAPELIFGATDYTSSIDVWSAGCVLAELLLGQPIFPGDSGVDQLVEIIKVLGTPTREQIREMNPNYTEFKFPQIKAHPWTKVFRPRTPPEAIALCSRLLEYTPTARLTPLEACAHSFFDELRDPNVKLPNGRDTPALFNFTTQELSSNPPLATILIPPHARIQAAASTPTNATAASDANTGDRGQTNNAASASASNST
Sequence of Biotin carboxylase (P37798 whole entry): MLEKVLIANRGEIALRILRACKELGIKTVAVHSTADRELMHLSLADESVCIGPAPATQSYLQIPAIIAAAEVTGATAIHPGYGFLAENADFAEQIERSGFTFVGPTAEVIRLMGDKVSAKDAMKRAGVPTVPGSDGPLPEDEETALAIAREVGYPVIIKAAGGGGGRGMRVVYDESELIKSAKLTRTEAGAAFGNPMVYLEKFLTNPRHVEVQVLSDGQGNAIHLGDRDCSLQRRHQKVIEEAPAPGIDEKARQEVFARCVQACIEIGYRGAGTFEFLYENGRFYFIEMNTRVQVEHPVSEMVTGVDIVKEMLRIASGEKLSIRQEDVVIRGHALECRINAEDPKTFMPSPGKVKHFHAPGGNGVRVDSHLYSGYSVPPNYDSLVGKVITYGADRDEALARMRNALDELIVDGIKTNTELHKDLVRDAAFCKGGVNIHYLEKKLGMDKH
Sequence of IKBKE (Q14164 whole entry, the tested form may be a part): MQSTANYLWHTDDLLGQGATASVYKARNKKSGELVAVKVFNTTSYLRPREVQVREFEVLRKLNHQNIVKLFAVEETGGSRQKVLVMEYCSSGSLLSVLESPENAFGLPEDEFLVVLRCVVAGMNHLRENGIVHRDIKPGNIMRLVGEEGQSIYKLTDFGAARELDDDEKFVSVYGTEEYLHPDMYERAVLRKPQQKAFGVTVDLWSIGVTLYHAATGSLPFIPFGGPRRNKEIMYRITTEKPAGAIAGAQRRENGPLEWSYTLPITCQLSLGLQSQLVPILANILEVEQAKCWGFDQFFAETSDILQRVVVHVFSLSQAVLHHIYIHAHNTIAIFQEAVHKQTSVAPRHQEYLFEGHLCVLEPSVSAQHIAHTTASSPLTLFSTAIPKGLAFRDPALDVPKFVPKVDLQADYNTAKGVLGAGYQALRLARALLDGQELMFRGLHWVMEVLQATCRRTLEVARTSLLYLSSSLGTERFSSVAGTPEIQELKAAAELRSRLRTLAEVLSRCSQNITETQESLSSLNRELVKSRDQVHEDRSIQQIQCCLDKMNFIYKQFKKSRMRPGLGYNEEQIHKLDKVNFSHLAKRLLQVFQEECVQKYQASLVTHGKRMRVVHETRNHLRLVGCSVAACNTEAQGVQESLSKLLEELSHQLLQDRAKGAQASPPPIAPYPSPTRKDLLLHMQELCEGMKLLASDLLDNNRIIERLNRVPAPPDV
Sequence of MAPK1 (P28482 whole entry): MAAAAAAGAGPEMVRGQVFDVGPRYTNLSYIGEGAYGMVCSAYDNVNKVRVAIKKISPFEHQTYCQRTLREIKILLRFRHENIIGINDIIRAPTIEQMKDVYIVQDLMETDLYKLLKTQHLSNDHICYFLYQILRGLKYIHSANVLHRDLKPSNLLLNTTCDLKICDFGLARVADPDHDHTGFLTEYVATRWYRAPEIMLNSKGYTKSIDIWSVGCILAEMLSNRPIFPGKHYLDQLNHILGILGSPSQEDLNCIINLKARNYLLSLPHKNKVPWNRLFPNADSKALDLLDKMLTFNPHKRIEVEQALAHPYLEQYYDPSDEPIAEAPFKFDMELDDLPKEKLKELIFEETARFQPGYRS
Sequence of FYN (P06241 whole entry, the tested form may be a part): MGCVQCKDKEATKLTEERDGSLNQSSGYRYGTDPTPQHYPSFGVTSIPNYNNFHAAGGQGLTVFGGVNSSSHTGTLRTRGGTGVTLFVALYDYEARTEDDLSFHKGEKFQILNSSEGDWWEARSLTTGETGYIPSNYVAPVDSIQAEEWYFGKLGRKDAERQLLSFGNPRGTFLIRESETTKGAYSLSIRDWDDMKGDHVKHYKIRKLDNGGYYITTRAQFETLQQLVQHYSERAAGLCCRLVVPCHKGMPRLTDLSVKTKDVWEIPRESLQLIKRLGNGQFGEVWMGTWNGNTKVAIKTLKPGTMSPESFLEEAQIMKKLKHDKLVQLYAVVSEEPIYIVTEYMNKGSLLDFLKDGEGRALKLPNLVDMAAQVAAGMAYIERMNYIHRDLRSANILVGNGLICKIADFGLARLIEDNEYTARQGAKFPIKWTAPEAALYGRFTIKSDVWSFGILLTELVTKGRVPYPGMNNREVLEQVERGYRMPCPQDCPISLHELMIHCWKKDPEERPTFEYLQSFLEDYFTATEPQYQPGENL
Sequence of AURKA (O14965 whole entry): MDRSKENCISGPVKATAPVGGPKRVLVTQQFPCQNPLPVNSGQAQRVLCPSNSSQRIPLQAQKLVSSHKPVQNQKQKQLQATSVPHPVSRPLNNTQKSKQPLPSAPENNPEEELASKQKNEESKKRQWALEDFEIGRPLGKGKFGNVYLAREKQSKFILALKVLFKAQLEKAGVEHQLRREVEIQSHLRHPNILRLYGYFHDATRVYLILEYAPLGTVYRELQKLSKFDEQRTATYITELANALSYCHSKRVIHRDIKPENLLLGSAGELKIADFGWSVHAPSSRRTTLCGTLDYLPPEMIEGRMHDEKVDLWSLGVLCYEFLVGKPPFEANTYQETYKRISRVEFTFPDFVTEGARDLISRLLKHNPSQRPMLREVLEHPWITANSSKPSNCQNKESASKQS
Sequence of MET (P08581 whole entry): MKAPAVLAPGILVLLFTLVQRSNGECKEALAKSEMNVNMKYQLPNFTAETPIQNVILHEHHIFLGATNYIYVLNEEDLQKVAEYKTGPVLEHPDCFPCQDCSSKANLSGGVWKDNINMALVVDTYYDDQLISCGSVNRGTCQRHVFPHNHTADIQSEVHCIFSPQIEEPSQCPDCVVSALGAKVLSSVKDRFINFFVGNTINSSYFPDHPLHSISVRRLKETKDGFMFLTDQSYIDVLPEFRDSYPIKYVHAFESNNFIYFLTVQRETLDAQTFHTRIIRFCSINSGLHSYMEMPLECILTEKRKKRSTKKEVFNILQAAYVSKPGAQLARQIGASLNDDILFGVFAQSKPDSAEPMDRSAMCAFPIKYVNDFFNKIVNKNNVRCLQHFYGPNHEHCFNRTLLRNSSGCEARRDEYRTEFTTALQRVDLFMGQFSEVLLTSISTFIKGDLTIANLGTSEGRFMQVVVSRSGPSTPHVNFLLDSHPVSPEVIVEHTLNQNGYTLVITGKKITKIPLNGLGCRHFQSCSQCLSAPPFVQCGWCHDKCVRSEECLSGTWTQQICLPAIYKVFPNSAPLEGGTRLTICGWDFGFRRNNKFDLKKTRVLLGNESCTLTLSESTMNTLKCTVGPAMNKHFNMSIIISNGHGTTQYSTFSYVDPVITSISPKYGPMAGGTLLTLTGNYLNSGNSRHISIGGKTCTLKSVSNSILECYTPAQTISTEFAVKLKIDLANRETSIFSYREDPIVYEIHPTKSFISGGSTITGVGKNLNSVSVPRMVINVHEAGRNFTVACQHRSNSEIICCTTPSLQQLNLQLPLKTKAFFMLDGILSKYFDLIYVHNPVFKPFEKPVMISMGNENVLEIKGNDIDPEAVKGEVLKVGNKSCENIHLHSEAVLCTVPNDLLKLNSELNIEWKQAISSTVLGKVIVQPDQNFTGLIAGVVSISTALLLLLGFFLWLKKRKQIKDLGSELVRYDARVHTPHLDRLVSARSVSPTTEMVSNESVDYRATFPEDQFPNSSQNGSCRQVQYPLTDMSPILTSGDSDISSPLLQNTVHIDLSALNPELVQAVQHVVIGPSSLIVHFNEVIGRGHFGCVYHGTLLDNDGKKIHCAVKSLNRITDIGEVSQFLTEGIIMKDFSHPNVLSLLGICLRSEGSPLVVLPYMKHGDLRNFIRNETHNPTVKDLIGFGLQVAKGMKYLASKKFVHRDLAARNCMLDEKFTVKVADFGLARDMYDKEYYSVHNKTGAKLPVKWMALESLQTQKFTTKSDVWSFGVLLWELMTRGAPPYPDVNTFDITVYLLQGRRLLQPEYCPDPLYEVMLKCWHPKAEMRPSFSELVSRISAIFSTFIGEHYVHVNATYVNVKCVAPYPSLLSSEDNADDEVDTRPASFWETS
Sequence of MAPK14 (Q16539 whole entry): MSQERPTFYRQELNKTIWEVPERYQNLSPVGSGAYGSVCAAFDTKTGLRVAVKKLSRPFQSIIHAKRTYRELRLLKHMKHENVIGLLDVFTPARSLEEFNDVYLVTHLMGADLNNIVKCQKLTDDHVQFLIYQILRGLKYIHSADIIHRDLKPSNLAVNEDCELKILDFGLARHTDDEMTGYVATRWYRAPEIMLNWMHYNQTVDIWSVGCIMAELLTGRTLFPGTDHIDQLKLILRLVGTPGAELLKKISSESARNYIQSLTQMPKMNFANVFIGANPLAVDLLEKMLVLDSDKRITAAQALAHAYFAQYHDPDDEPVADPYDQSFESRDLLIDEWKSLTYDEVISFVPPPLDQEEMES
Sequence of CSNK2A1 (P68400 whole entry, the tested form may be a part): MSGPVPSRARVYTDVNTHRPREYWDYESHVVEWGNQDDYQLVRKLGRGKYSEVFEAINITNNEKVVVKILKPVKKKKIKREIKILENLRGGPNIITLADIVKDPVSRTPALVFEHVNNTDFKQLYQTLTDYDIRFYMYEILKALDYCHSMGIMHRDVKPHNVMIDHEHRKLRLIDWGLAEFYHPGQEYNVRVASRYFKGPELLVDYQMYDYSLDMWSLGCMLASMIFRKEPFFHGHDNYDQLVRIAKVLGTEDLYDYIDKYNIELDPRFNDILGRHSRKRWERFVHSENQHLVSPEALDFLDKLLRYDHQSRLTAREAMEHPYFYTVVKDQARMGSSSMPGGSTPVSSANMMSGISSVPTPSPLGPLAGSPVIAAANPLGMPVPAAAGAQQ

Turning to `CC(C)COc1cccc(Cl)c1-c1cc2cnc(N)nc2nc1N1C[C@@H]2[C@@H](N)[C@@H]2C1`, in the data set with Escherichia coli [1], the result was Active. In addition, the MIC against Escherichia coli [2] was 0.03 µg/mL (≈ 0.0706 µM). Moreover, the inhibition at 1 h, 25 µM was 5% on MAPK14; 15% at MET; 0% at IKBKE; 12% on FYN; 6% on MAPK1; 7% at GSK3B. Moreover, in the data set with Pseudomonas aeruginosa, the Activity was determined as 2 ×10⁻⁹ No_unit. Further, the IC50 at Biotin carboxylase is no more than 15 nM.
Regarding `Nc1ncc2cc(-c3c(Br)cccc3Br)c(N)nc2n1`, in the data set with Escherichia coli [3], the result was Active. The inhibition at 1 h, 25 µM on MAPK14 amounted to 24%; at AURKA it was 20%; on CDK1/cyclin B it was 18%; at MAPK1, 26%; on SGK (Sgk1) it was 7%; on GSK3B, 6%. The inhibition at 1 h, 25 µM on CSNK2A1 worked out at 4%.
On to `Nc1ncc2cc(-c3c(Cl)cccc3-c3cccnc3)c(N3C[C@@H]4[C@@H](N)[C@@H]4C3)nc2n1`, for which the inhibition at 1 h, 25 µM on BTK turned out to be 16%; at MET it was 7%; against IKBKE, 3%; on AURKA, 9%; at FYN, 12%; against IKBKB it was 5%. Also, the inhibition at 1 h, 25 µM at CDK1/cyclin B amounted to 4%; on GSK3B, 4%; on CSNK2A1 it was 0%. This compound also returned an MIC against Escherichia coli [2] of 0.03 µg/mL (≈ 0.0698 µM). In addition, the Activity in the data set on Pseudomonas aeruginosa amounted to 9 ×10⁻⁹ No_unit. For the same compound, the IC50 on Biotin carboxylase is no more than 15 nM.

For the origin of these results see ChEMBL document CHEMBL4406811, “Optimization and Mechanistic Characterization of Pyridopyrimidine Inhibitors of Bacterial Biotin Carboxylase” (J Med Chem, 2019).
